Source: paper PMC12029309, “Synthesis and Antifungal Activity of 1,2,4-Oxadiazole Derivatives” (Molecules, 2025)
Values after ≈ are worked out from the molar mass of the structure shown. Where two headings read alike, the source gives them in different places.

Tests used:
R. solani = assay: microbe, parasite or virus in culture; format: cell-based; conditions: Rhizoctonia solani; for EC50: read-out: EC50 (μg/mL) R. solani; for inhibition at 50 µg/mL: read-out: The Inhibition Rate (%) R. solani
F. graminearum = assay: microbe, parasite or virus in culture; format: cell-based; conditions: Fusarium graminearum; for EC50: read-out: EC50 (μg/mL) F. graminearum; for inhibition at 50 µg/mL: read-out: The Inhibition Rate (%) F. graminearum
E. turcicum = assay: Mycelial growth inhibition test in vitro (E. turcicum); format: cell-based; conditions: Exserohilum turcicum; for EC50: read-out: EC50 (μg/mL) E. turcicum; for inhibition at 50 µg/mL: 50 μg/mL, mean ± SD of three replicates, read-out: The Inhibition Rate (%) E. turcicum
C. capsica [1] = assay: Mycelial growth inhibition test in vitro (C. capsica); format: cell-based; conditions: Colletotrichum; for EC50: read-out: EC50 (μg/mL) C. capsica; for inhibition at 50 µg/mL: 50 μg/mL, mean ± SD of three replicates, read-out: The Inhibition Rate (%) C. capsica
Procedure: The antifungal activity of the target compound was tested by the mycelial growth inhibition rate method. The compounds were detected at a concentration of 50 μg/mL, and carbendazim was used as the positive control. The antifungal activity was carried out according to literature reports. After drilling the mycelium (3 mm), it was inoculated into the PDA medium containing compounds, and the Petri dish was put into the incubator at 25 °C for 12-48 h; then, the colony diameter was measured with 50 index vernier caliper by the cross method, and the data were recorded. […] • A: The average diameter of the blank medium colony. • B: Diameter of mushroom cake (3 mm). • C: The average diameter of the colonies in the medium containing compound. […] The PDA medium containing different concentrations of the compound was prepared by the two-fold dilution method, the final concentration of the compound in the medium was adjusted to 0-100.00 μg/mL, and three parallel samples were set for each concentration. […] The toxicity regression equation of the tested compound was obtained, taking the logarithm of compound concentration (lgc) as the independent variable (x) and the probability value of inhibition rate as the dependent variable (y), and the EC50 value of each tested compound was calculated.

C. capsica [2] = assay: Antifungal activity in vivo: protective effect on detached pepper infected by C. capsica; parameters: species or system Colletotrichum capsica
Procedure: The protective effects of compounds 4q and 4f and carbendazim on pepper infected by […] studied. […] The peppers were washed with water and dried, and the surface was wiped with 75% ethanol for sterilization. The infected area was pricked with a diameter of 4 mm on the surface of the green pepper with a sterile inoculation needle. After spraying the antifungus compound solution on the surface and resting for 12 h, the activated cake (4 mm in diameter) was inoculated into the infected area. After culturing at 25 °C for 1 to 7 days, the plaque diameter was measured by the cross method, and the efficacy was calculated according to Formula (2).(2) Control efficacy%=A-B/A-C×100% • A: The average diameter of the blank medium colony. • B: The average diameter of the colonies in the medium containing compound. • C: Diameter of mushroom cake (3 mm/4 mm).

[3] = MTT cytotoxicity evaluation on MCF-7 cells; format: cell-based; conditions: human, range 0~100 μM
Procedure: (§1) Cells were incubated at 37 °C in an incubator with 5% CO2. Cell viability was determined using the MTT assay. Briefly, MCF-7 cell lines were seeded at 5000–8000 cells/well in 96-well plates. […] Following a continuous 24 h of incubation, the culture medium was replaced by 90 μL fresh culture medium, and 10 μL MTT solution was added.

B. cinerea = assay: Mycelial growth inhibition test in vitro (B. cinerea); format: cell-based; conditions: Botrytis cinerea; 50 μg/mL, mean ± SD of three replicates; read-out: The Inhibition Rate (%) B. cinerea
Procedure: The antifungal activity of the target compound was tested by the mycelial growth inhibition rate method. The compounds were detected at a concentration of 50 μg/mL, and carbendazim was used as the positive control. The antifungal activity was carried out according to literature reports. After drilling the mycelium (3 mm), it was inoculated into the PDA medium containing compounds, and the Petri dish was put into the incubator at 25 °C for 12-48 h; then, the colony diameter was measured with 50 index vernier caliper by the cross method, and the data were recorded. […] • A: The average diameter of the blank medium colony. • B: Diameter of mushroom cake (3 mm). • C: The average diameter of the colonies in the medium containing compound.

MCF-7 cell line = assay: MTT cytotoxicity evaluation on MCF-7 cells; format: cell-based; conditions: 100 μM, 24 h
Procedure: as §1

| Structure (SMILES) | EC50 (R. solani) | EC50 (F. graminearum) | EC50 (E. turcicum) | EC50 (C. capsica [1]; mycelial growth, 0–100.00 μg/mL two-fold dilution) | Control efficacy (%) (C. capsica [2]; 500 μg/mL, 5 days) | Control efficacy (%) (C. capsica [2]; 1000 μg/mL, 5 days) | IC50 at 24 h [3] | inhibition at 50 µg/mL (R. solani) | inhibition at 50 µg/mL (F. graminearum) | inhibition at 50 µg/mL (E. turcicum) | inhibition at 50 µg/mL (B. cinerea) | EC50 (C. capsica [1]) | inhibition at 50 µg/mL (C. capsica [1]) | Control efficacy (%) (C. capsica [2]; 1000 μg/mL, 3 day) | cell survival rate of MCF-7 cells (MCF-7 cell line) |
| --- | --- | --- | --- | --- | --- | --- | --- | --- | --- | --- | --- | --- | --- | --- | --- |
| COC(=O)Nc1nc2ccccc2[nH]1 [carbendazim, reference compound] | 1.1 µg/mL (≈ 5.75 µM) | 19.6 µg/mL (≈ 102 µM) | 110 µg/mL (≈ 573 µM) | 0.22 µg/mL (≈ 1.15 µM) | 100% | 100% | – | – | – | – | – | – | – | – | – |
| COc1ccc(-c2noc(-c3ccc(O)c(O)c3)n2)cc1OC [Compound 4q, 4-(3-(3,4-Dimethoxyphenyl)-1,2,4-oxadiazol-5-yl)benzene-1,2-diol] | 38.9 µg/mL (≈ 124 µM) | 149 µg/mL (≈ 475 µM) | 229 µg/mL (≈ 729 µM) | – | 50.12% | 76.83% | ≥ 100 µM | 47.8 ± 8.13% | 43.5 ± 3.7% | 43.5 ± 0.99% | 32.8 ± 12.2% | 41.7 µg/mL (≈ 133 µM) | 55.5 ± 1.34% | – | – |
| Oc1ccc(-c2nc(-c3ccccc3)no2)cc1O [Compound 4f, 4-(3-Phenyl-1,2,4-oxadiazol-5-yl) benzene-1,2-diol] | 12.7 µg/mL (≈ 49.9 µM) | 30 µg/mL (≈ 118 µM) | 29.1 µg/mL (≈ 115 µM) | – | 100% | – | – | 80.9 ± 2.4% | 100% | 85.7 ± 1.97% | 38.9 ± 5.35% | 8.81 µg/mL (≈ 34.7 µM) | 86.8 ± 3.11% | 100% | – |
| COc1ccc(-c2noc(/C=C/c3ccccc3)n2)cc1OC [Compound 5e, (E)-3-(3,4-Dimethoxyphenyl)-5-styryl-1,2,4-oxadiazole] | – | – | – | – | – | – | – | 23.9 ± 0.59% | 28.7 ± 5.14% | 29.4 ± 2.05% | 30.6 ± 1.43% | – | < 10% | – | significant cell proliferation |
